According to US20110152267A1, “Compositions and Methods for Treating Hyperproliferative Disorders” (Texas Tech University System, priority 2009, published 2011):

Legend:
[1] = tested on: COG-LL-317 Acute Lymphoblastic Leukemia (ALL) cancer cell line; test: DIMSCAN cytotoxicity dose-response with fenretinide (Examples A, FIGS. 5, 11, 17); type: cell-based, human; conditions: 5% oxygen, at one or more doses, +96 hrs
Description: (§1) Cytotoxicity Assay: Cytotoxicity in cell lines was determined using a fluorescence-based assay employing digital imaging microscopy (DIMSCAN)(after Fragala, et al, Mol Cancer Ther, 6:886-897, 2007). DIMSCAN quantitates viable cells which selectively accumulate fluorescein diacetate and is capable of measuring cytotoxicity over a 4-5 log dynamic range by quantifying total fluorescence per well (which is proportional to viable, clonogenic cells) after eliminating background fluorescence using digital thresholding and eosin Y quenching. Briefly, cell lines were seeded into 96-well plates in 100 µL of complete culture medium (10-20% serum) per well. Cells were incubated overnight in 2%, 5% or 20% oxygen (room air) prior to addition of drugs in […] volumes of complete medium to various final drug concentrations in replicates of 12 wells per concentration. In assays employing D-threo-PPMP, PPMP was employed at a fixed, minimally-toxic, final concentration of 10 μM in each well. Control wells received ethanol (final concentration=0.12%-0.20%) in complete medium equivalent to the maximum final ethanol concentration of drug-treated wells. Plates were incubated at various oxygen concentrations to simulate physiological hypoxia (i.e., 2% oxygen=typical solid tumor oxygen levels; 5%=bone marrow oxygen levels for leukemias; 20% room air=supraphysiological oxygen for comparison with typical laboratory culture conditions). Plates were assayed at 3-4 days after initiating drug exposure depending on the growth properties of each cell line, to allow for maximum cell death and outgrowth of surviving cells. To measure cytotoxicity, FDA (stock solution of 1 mg/ml in DMSO) was added, in 50 µL of complete medium per well, to a final concentration of 10 µg/ml. The plates were incubated for an additional 15-30 minutes at 37 C and then 30 µL of eosin Y (0.5% in normal saline) was added per well. Total fluorescence of each well was then measured using digital imaging microscopy. […]

[2] = tested on: CHLA-266 brain cancer (PNET) cell line; test: DIMSCAN cytotoxicity dose-response with fenretinide (Examples A, FIGS. 2, 8, 13); type: cell-based, human; conditions: 2% oxygen, at one or more doses, +96 hrs
Description: as §1

[3] = tested on: MDA-MB-231 breast adenocarcinoma cell line; test: DIMSCAN cytotoxicity, fenretinide + L-threo-sphinganines 3:1 (Example B14); type: cell-based, human; conditions: MDA-MB-231, 20% O2, 96 h
Description: (§2) Cytotoxicity Assay—Once again, cytotoxicity is determined using the DIMSCAN assay system (R. Proffitt et al., Cytometry 24, 204-213 (1996); T. Frgala et al., Mol Cancer Ther. 6:886-97, 2007). The system employs digital imaging microscopy to quantify viable cells, which selectively accumulate fluorescein diacetate to become brightly fluorescent. The system is capable of measuring cytotoxicity over a 4-5 log dynamic range by quenching the residual fluorescence of dead and dying cells with eosin Y and quantifying the total fluorescence of viable cells using digital thresholding. Measured fluorescence is directly proportionate to the number of viable cells. A comparison of the total fluorescence of a drug-treated cell population to the fluorescence of a similar number of untreated cells yields a survival fraction. In brief, 2000 to 10,000 cells/well (depending on size and growth rates) are replicate plated into 60 wells of a 96-well tissue culture plate in 0.1 mL of whole medium and allowed to attach overnight. Drug(s) are then added in 0.05 mL of whole medium to the final concentrations indicated. Drugs (fenretinide, and various chain length L-threo-sphinganines) were tested both as single agents and in a 3:1 ratio of fenretinide:sphinganine. C18-L-threo-sphinganine, or “safingol,” was also tested and results shown for reference. There are 12 wells treated per drug concentration. Twelve wells receive drug vehicle-only to the appropriate final concentration and serve as controls for the plate. Cells are incubated for 96 hours at 37° C. in ambient air with 5% CO2. Fluorescein diacetate is then added to each well in 0.05 mL media to a final concentration of 8 microgram/mL. Cells are incubated for a further 15 minutes at 37° C. and 0.03 mL of 0.5% eosin Y is added to each well. Total fluorescence of viable cells is then measured by digital imaging microscopy. Results were graphed as the ratio of the fluoresecence of drug-treated wells to non-drug treated control wells (i.e., Survival Fraction). All tests were performed at least twice. Representative results are shown.
(§3) The Combination Index (CI) is a term to describe mathematical modeling of the pharmacologic effects on cytotoxicity (cell death) of two drugs in combination based. Cytotoxic “synergy” is defined as a cell death affect which is greater than would be expected from a simple product of the single agent cytotoxicities alone (i.e. an “additive” effect). By Chou-Talalay analysis, a CI<0.9 on a Fraction Affected (“Fa”, i.e. fraction of cells killed) indicates synergy, with smaller numbers indicating greater synergy; a CI of 0.9-1.1 signifies an additive or near-additive effect; and a CI>1.1 means the drug combination is antagonistic.
(§4) Fenretinide and L-threo-sphinganines tested in human breast adenocarcinoma (breast cancer) cell lines, MCF-7 and MDA-MB-231.

[4] = tested on: MCF-7 breast adenocarcinoma cell line; test: as above; type: cell-based, human; conditions: 96 h
Description: as §2, §3, §4

[5] = tested on: CRL-2091 normal human fibroblast cell line; test: DIMSCAN cytotoxicity, fenretinide + L-threo-sphinganines 3:1 (Example B1); type: cell-based; conditions: CRL-2091, 20% O2, 96 h
Description: as §2, §3
(§5) Fenretinide and L-threo-sphinganines tested in normal human fibroblast (normal skin cell) cell lines, CRL-2091 and CRL-2076.

[6] = tested on: CRL-2076 normal human fibroblast cell line; test: as above; type: cell-based; conditions: CRL-2076, 20% O2, 96 h
Description: as §2, §3, §5

[7] = 4-HPR 1.5 μM + L-threo-sphinganine 0.5 μM
[8] = 4-HPR 3 μM + L-threo-sphinganine 1 μM
[9] = 4-HPR 6 μM + L-threo-sphinganine 2 μM
[10] = 4-HPR 9 μM + L-threo-sphinganine 3 μM

CCCCCCCCCCCCCCCC[C@H](O)[C@@H](N)CO [C19, (2S,3S)-2-amino-1,3-nonadecanediol]
C.I. (Combination Index) with fenretinide [1]: < 1
C.I. (Combination Index) with fenretinide [2]: < 1
CI (Combination Index) [3, 7]: 1.2
Fa (fraction affected) [3, 7]: 0.078
CI (Combination Index) [3, 8]: 1.2
Fa (fraction affected) [3, 8]: 0.195
CI (Combination Index) [3, 9]: 1.1
Fa (fraction affected) [3, 9]: 0.503
CI (Combination Index) [3, 10]: 0.7
Fa (fraction affected) [3, 10]: 0.909
CI (Combination Index) [4, 7]: 1.2
Fa (fraction affected) [4, 7]: 0.138
CI (Combination Index) [4, 8]: 0.8
Fa (fraction affected) [4, 8]: 0.736
CI (Combination Index) [4, 9]: 0.8
Fa (fraction affected) [4, 9]: 0.965
CI (Combination Index) [4, 10]: 0.9
Fa (fraction affected) [4, 10]: 0.991

CCCCCCCCCCCCCCC[C@H](O)[C@@H](N)CO [C18, (2S,3S)-2-amino-1,3-octadecanediol, reference compound]
CI (Combination Index) [5, 7]: >1
Fa (fraction affected) [5, 7]: 0.16
CI (Combination Index) [5, 8]: >1
Fa (fraction affected) [5, 8]: 0.29
CI (Combination Index) [5, 9]: >1
Fa (fraction affected) [5, 9]: 0.29
CI (Combination Index) [5, 10]: 0.33
Fa (fraction affected) [5, 10]: 0.73
CI (Combination Index) [6, 7]: >1
Fa (fraction affected) [6, 7]: 0.20
CI (Combination Index) [6, 8]: 1
Fa (fraction affected) [6, 8]: 0.11
CI (Combination Index) [6, 9]: >1
Fa (fraction affected) [6, 9]: 0.35
CI (Combination Index) [6, 10]: >1
Fa (fraction affected) [6, 10]: 0.94
CI (Combination Index) [3, 7]: 1.8
Fa (fraction affected) [3, 7]: 0.088
CI (Combination Index) [3, 8]: 1.8
Fa (fraction affected) [3, 8]: 0.207
CI (Combination Index) [3, 9]: 1.3
Fa (fraction affected) [3, 9]: 0.597
CI (Combination Index) [3, 10]: 0.7
Fa (fraction affected) [3, 10]: 0.922
CI (Combination Index) [4, 7]: 1.2
Fa (fraction affected) [4, 7]: 0.243
CI (Combination Index) [4, 8]: 0.6
Fa (fraction affected) [4, 8]: 0.756
CI (Combination Index) [4, 9]: 0.9
Fa (fraction affected) [4, 9]: 0.824
CI (Combination Index) [4, 10]: 0.6
Fa (fraction affected) [4, 10]: 0.961

CCCCCCCCCCC[C@H](O)[C@@H](N)CO [C14]
CI (Combination Index) [5, 7]: >1
Fa (fraction affected) [5, 7]: 0.32
CI (Combination Index) [5, 8]: >1
Fa (fraction affected) [5, 8]: 0.40
CI (Combination Index) [5, 9]: >1
Fa (fraction affected) [5, 9]: 0.21
CI (Combination Index) [5, 10]: >1
Fa (fraction affected) [5, 10]: 0.69
CI (Combination Index) [6, 7]: >1
Fa (fraction affected) [6, 7]: 0.10
CI (Combination Index) [6, 8]: >1
Fa (fraction affected) [6, 8]: 0.10
CI (Combination Index) [6, 9]: >1
Fa (fraction affected) [6, 9]: 0.12
CI (Combination Index) [6, 10]: >1
Fa (fraction affected) [6, 10]: 0.08

CCCCCCCCCCCCCCCCC[C@H](O)[C@@H](N)CO [C20, (2S,3S)-2-amino-1,3-icosanediol]
C.I. (Combination Index) with fenretinide [1]: < 1
C.I. (Combination Index) with fenretinide [2]: < 1
CI (Combination Index) [3, 7]: 2.0
Fa (fraction affected) [3, 7]: 0.011
CI (Combination Index) [3, 8]: 1.1
Fa (fraction affected) [3, 8]: 0.190
CI (Combination Index) [3, 9]: 1.3
Fa (fraction affected) [3, 9]: 0.583
CI (Combination Index) [3, 10]: 1.8
Fa (fraction affected) [3, 10]: 0.664
CI (Combination Index) [4, 7]: 0.8
Fa (fraction affected) [4, 7]: 0.287
CI (Combination Index) [4, 8]: 0.4
Fa (fraction affected) [4, 8]: 0.852
CI (Combination Index) [4, 9]: 0.3
Fa (fraction affected) [4, 9]: 0.971
CI (Combination Index) [4, 10]: 0.1
Fa (fraction affected) [4, 10]: 0.998

CCCCCCCCCCCC[C@H](O)[C@@H](N)CO [C15]
CI (Combination Index) [5, 7]: >1
Fa (fraction affected) [5, 7]: 0.26
CI (Combination Index) [5, 8]: >1
Fa (fraction affected) [5, 8]: 0.39
CI (Combination Index) [5, 9]: >1
Fa (fraction affected) [5, 9]: 0.29
CI (Combination Index) [5, 10]: >1
Fa (fraction affected) [5, 10]: 0.66
CI (Combination Index) [6, 7]: 1
Fa (fraction affected) [6, 7]: 0.08
CI (Combination Index) [6, 8]: >1
Fa (fraction affected) [6, 8]: 0.09
CI (Combination Index) [6, 9]: >1
Fa (fraction affected) [6, 9]: 0.06
CI (Combination Index) [6, 10]: >1
Fa (fraction affected) [6, 10]: 0.07

CCCCCCCCC[C@H](O)[C@@H](N)CO [C12]
CI (Combination Index) [5, 7]: >1
Fa (fraction affected) [5, 7]: 0.27
CI (Combination Index) [5, 8]: 0.76
Fa (fraction affected) [5, 8]: 0.44
CI (Combination Index) [5, 9]: >1
Fa (fraction affected) [5, 9]: 0.42
CI (Combination Index) [5, 10]: >1
Fa (fraction affected) [5, 10]: 0.54
CI (Combination Index) [6, 7]: 1
Fa (fraction affected) [6, 7]: 0.17
CI (Combination Index) [6, 8]: >1
Fa (fraction affected) [6, 8]: 0.30
CI (Combination Index) [6, 9]: >1
Fa (fraction affected) [6, 9]: 0.29
CI (Combination Index) [6, 10]: >1
Fa (fraction affected) [6, 10]: 0.30
CI (Combination Index) [3, 7]: 1.5
Fa (fraction affected) [3, 7]: 1E−07
CI (Combination Index) [3, 8]: 0.9
Fa (fraction affected) [3, 8]: 0.052
CI (Combination Index) [3, 9]: 1.6
Fa (fraction affected) [3, 9]: 0.272
CI (Combination Index) [3, 10]: 2.0
Fa (fraction affected) [3, 10]: 0.720
CI (Combination Index) [4, 7]: 1.0
Fa (fraction affected) [4, 7]: 0.217
CI (Combination Index) [4, 8]: 1.0
Fa (fraction affected) [4, 8]: 0.642
CI (Combination Index) [4, 9]: 0.9
Fa (fraction affected) [4, 9]: 0.951
CI (Combination Index) [4, 10]: 1.2
Fa (fraction affected) [4, 10]: 0.975
